Where “and” joins values, the source holds several entries; their conditions need not be identical. Equal values may be shown once. Records with an inconclusive call do not appear.
System: BDF1 mice, colon carcinoma 38 sc, T/C %
Assay: NCI In Vivo Anticancer Drug Screen. Data for tumor model Colon Carcinoma 38 (subcutaneous) in B6D2F1 (BDF1) mice
Settings: endpoint: median tumor weight (est.), higher = larger tumour
Outline: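 Compound antitumor activity was assessed in mice carrying transplantable tumors. Survival or tumor size was recorded, and each value is the treated-group measurement divided by that of the vehicle-treated control group.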

[1] = dose: 4.0 mg/kg/injection, schedule: Q07DX002 (ip), vehicle: saline
[2] = dose: 3.12 mg/kg/injection, schedule: Q07DX002 (ip), vehicle: saline
[3] = dose: 6.25 mg/kg/injection, schedule: Q07DX002 (ip), vehicle: saline
[4] = dose: 12.5 mg/kg/injection, schedule: Q07DX002 (ip), vehicle: saline
[5] = dose: 25.0 mg/kg/injection, schedule: Q07DX002 (ip), vehicle: saline

## O=C1c2ccccc2C(=O)c2c1cn1c2Cc2ccccc2C1
dose: 5.0 mg/kg/injection, schedule: Q01DX005 (iv), vehicle: other
  T/C: 36 % of control
dose: 10.0 mg/kg/injection, schedule: Q01DX005 (iv), vehicle: other
  T/C: 36 % of control
dose: 18.0 mg/kg/injection, schedule: Q07DX002 (ip), vehicle: Klucel (hydroxypropylcellulose) (HPC)
  T/C: 219 % of control
dose: 18.75 mg/kg/injection, schedule: Q07DX002 (ip), vehicle: Klucel (hydroxypropylcellulose) (HPC)
  T/C: 63 % of control
dose: 20.0 mg/kg/injection, schedule: Q01DX005 (iv), vehicle: other
  T/C: 36 % of control
dose: 37.0 mg/kg/injection, schedule: Q07DX002 (ip), vehicle: Klucel (hydroxypropylcellulose) (HPC)
  T/C: 89 % of control
dose: 37.5 mg/kg/injection, schedule: Q07DX002 (ip), vehicle: Klucel (hydroxypropylcellulose) (HPC)
  T/C: 63 % of control
dose: 40.0 mg/kg/injection, schedule: Q01DX005 (iv), vehicle: other
  T/C: 23 % of control
dose: 75.0 mg/kg/injection, schedule: Q07DX002 (ip), vehicle: Klucel (hydroxypropylcellulose) (HPC)
  T/C: 38 % of control and 41 % of control and 59 % of control
dose: 75.0 mg/kg/injection, schedule: Q07DX002 (iv), vehicle: other
  T/C: 95 % of control
dose: 100.0 mg/kg/injection, schedule: Q07DX002 (ip), vehicle: other
  T/C: 74 % of control
dose: 100.0 mg/kg/injection, schedule: Q07DX002 (ip), vehicle: saline with Tween-80
  T/C: 63 % of control
dose: 100.0 mg/kg/injection, schedule: Q07DX002 (iv), vehicle: other
  T/C: 120 % of control
dose: 150.0 mg/kg/injection, schedule: Q07DX002 (ip), vehicle: other
  T/C: 41 % of control
dose: 200.0 mg/kg/injection, schedule: Q07DX002 (ip), vehicle: other
  T/C: 41 % of control
dose: 200.0 mg/kg/injection, schedule: Q07DX002 (ip), vehicle: saline with Tween-80
  T/C: 61 % of control
dose: 300.0 mg/kg/injection, schedule: Q07DX002 (ip), vehicle: Klucel (hydroxypropylcellulose) (HPC)
  T/C: 8 % of control and 13 % of control

## CCCCCC(O)C1C(=O)OC(C)C(O)/C=C/C=C/C=C/C=C/C=C(\C)C(O)C(O)C(O)CC(O)CC(O)CC(O)CC(O)CC1O (centres undefined)
dose: 0.5 mg/kg/injection, schedule: Q07DX002 (ip), vehicle: saline
  T/C: 92 % of control
dose: 1.0 mg/kg/injection, schedule: Q07DX002 (ip), vehicle: saline
  T/C: 118 % of control
[1]
  T/C: 90 % of control
dose: 8.0 mg/kg/injection, schedule: Q07DX002 (ip), vehicle: saline
  T/C: 95 % of control

## OCCN1CCN(CC/C=C2/c3ccccc3Sc3ccc(Cl)cc32)CC1
[2]
  T/C: 83 % of control
[3]
  T/C: 39 % of control
[4]
  T/C: 112 % of control
[5]
  T/C: 67 % of control
dose: 50.0 mg/kg/injection, schedule: Q07DX002 (ip), vehicle: saline
  T/C: 110 % of control
dose: 100.0 mg/kg/injection, schedule: Q07DX002 (ip), vehicle: saline
  T/C: 99 % of control

## CCC(CC)COC(=O)c1ccccc1C(=O)OCC(CC)CC
dose: 25.0 mg/kg/injection, schedule: Q07DX002 (ip), vehicle: saline with Tween-80
  T/C: 71 % of control
dose: 50.0 mg/kg/injection, schedule: Q07DX002 (ip), vehicle: saline with Tween-80
  T/C: 92 % of control
dose: 400.0 mg/kg/injection, schedule: Q07DX002 (ip), vehicle: saline with Tween-80
  T/C: 122 % of control

## CCCCCC(=O)O[C@]1(C(C)=O)CC[C@H]2[C@@H]3CCC4=CC(=O)CC[C@]4(C)[C@H]3CC[C@@]21C
dose: 25.0 mg/kg/injection, schedule: Q07DX003 (ip), vehicle: Klucel (hydroxypropylcellulose) (HPC)
  T/C: 78 % of control
dose: 50.0 mg/kg/injection, schedule: Q07DX003 (ip), vehicle: Klucel (hydroxypropylcellulose) (HPC)
  T/C: 62 % of control
dose: 100.0 mg/kg/injection, schedule: Q07DX003 (ip), vehicle: Klucel (hydroxypropylcellulose) (HPC)
  T/C: 81 % of control
dose: 200.0 mg/kg/injection, schedule: Q07DX003 (ip), vehicle: Klucel (hydroxypropylcellulose) (HPC)
  T/C: 82 % of control
dose: 400.0 mg/kg/injection, schedule: Q07DX003 (ip), vehicle: Klucel (hydroxypropylcellulose) (HPC)
  T/C: 49 % of control

## CC[C@]1(O)C[C@H]2CN(CCc3c([nH]c4ccccc34)[C@@](C(=O)OC)(c3cc4c(cc3OC)N(C)[C@H]3[C@@](O)(C(=O)OC)[C@H](OC(C)=O)[C@]5(CC)C=CCN6CC[C@]43[C@@H]65)C2)C1
[1]
  T/C: 20 % of control and 22 % of control

## C[n+]1c(-c2cccc3ccccc23)c2cc(N)ccc2c2ccccc21
[2]
  T/C: 107 % of control
dose: 3.12 mg/kg/injection, schedule: Q07DX002 (ip), vehicle: suspension in saline
  T/C: 160 % of control
[3]
  T/C: 122 % of control
dose: 6.25 mg/kg/injection, schedule: Q07DX002 (ip), vehicle: suspension in saline
  T/C: 110 % of control
[4]
  T/C: 64 % of control and 85 % of control
dose: 12.5 mg/kg/injection, schedule: Q07DX002 (ip), vehicle: suspension in saline
  T/C: 256 % of control
[5]
  T/C: 67 % of control and 79 % of control
dose: 25.0 mg/kg/injection, schedule: Q07DX002 (ip), vehicle: suspension in saline
  T/C: 193 % of control

Source: PubChem BioAssay AID212 (DTP/NCI, 2004)
